Earlier results, collected in patent US20160331796A1, “ENRICHED AMARANTHUS BLITOIDES COMPOSITIONS AND USES THEREOF” (priority 2010, published 2016).

Tested on: prostate cancer cell lines, and primary prostate tumor lines

Substance: Vitamin D
- effect on invasion of prostate cancer cells (in vitro): decrease invasion
- expression of α6 and β4 integrins (integrins associated with increased migration and invasion of prostate cancer cells in vitro): decreased expression
- effect on proliferation and differentiation of tumor cell types (several tumor cell types, including prostate cancer cell lines and primary prostate tumor lines): inhibit proliferation and promote differentiation
